Measured values taken from patent US20100184807A1, “Methods to inhibit tumor cell growth by using proton pump inhibitors” (Bio-Quant, Inc., priority 2008, published 2010).

How the values were obtained:
Experiment in all cases: MTT tumor cell growth assay
Type in all cases: cell-based
SUDHL4 (lymphoma) = test system: SUDHL4 (lymphoma)
Procedure: (§1) In one study, adherent cells were plated approximately 16-24 hours before the day of the experiment in 180 μl growth media. On the day of the experiment, the plated adherent cells were analyzed and counted and suspension cells were plated in 180 μl growth media. 10× lansoprazole compounds and vehicle was prepared. The 10× lansoprazole compounds were prepared by diluting lansoprazole to final concentrations of 100 μM, 30 μM, 10 μM, 3 μM, and 1 μM. A vehicle was prepared by preparing a solution of PBS, equivalent to the volume used for 10 μM lansoprazole wherein the 1× solution constitutes ˜0.06% PBS. 10 μl of the various 10× lansoprazole solutions and the vehicle were added to the cells. The cells were incubated at 37° C., 5% CO2 for 48 hours. The media was then aspirated. The cell suspension was then spun at 1500 RPM for 10 minutes. The media was slowly removed. 200 μl of MTT solution was added to each well with a concentration of 0.863 mg/ml MTT in the growth media. The cells were incubated at 37° C., 5% CO2 for 4 hours and the medium is then aspirated. The plate containing the cell suspension was then spun at 1500 RPM for 10 minutes. The media was slowly removed using a multichannel pipettor. 100 μl of DMSO was then added to each well. The cells were incubated at 37° C., 5% CO2 for 5 minutes and the absorbance was obtained at 560 nm using a Dynex Opsys MR plate reader. The cells used for this procedure were the following cell lines: IGROV1 (ovarian cancer); OVCAR 8 (ovarian cancer); ES-2 (ovarian cancer); CAOV3 (ovarian cancer); OVCAR5 (ovarian cancer); SUDHL4 (lymphoma); RPMI8226 (myeloma); RPMI6666 (Hodgkin's lymphoma); NC37 (lymphoma); GDM-1 (leukemia); MC/CAR (prostate cancer); DU-145 (prostate cancer), J45-01 (leukemia), MOLT3 (leukemia), HUT78, J-gamma-1 (leukemia), MCF7 […], COL0205 (colon cancer), HL60 CLONE 15 (leukemia), T47D (breast cancer), P116 (intestinal cancer), KU812 (leukemia), SW620 (colon cancer), MK92-M1 (lymphoma), MV-4-11 (leukemia), HS578T (breast cancer), HT29 (colon cancer), HCT 116 (colon cancer), CAKI-1 (kidney cancer), A549 (lung cancer), H460 (lung cancer), A3 (colon cancer), MDA-MB231 […], MALME 3M (melanoma), RXF393 (kidney cancer), RS4.11 (leukemia), PC3 (prostate cancer), OVCAR3 (ovarian cancer), MDA-MB435 (melanoma), HUT102 (lymphoma), HL60 (leukemia), CCRF-CEM (leukemia), HUT78 (lymphoma), 786-O (kidney cancer), ACHN (kidney cancer), A498 (kidney cancer), H226 (lung cancer), H522 (lung cancer), HOP92 (lung cancer), SNB 19 (brain cancer), OVCAR4 (ovarian cancer), H9 (lymphoma), UO-31 (kidney cancer), HH (lymphoma), DAUDI (leukemia), LOXIMVI (melanoma), NAMALWA (lymphoma), EKVX (lung cancer), DOHH2 (lymphoma), SNB75 (brain cancer), SKMEL28 (melanoma), SKMEL5 (melanoma), SKMEL2 (melanoma), M14 (melanoma), UACC 257 (melanoma), H332M (lung cancer), KM12 (colon cancer), HCC2998 (colon cancer), G401 (kidney cancer), RS1184 (lymphoma), MC116 (leukemia), MOLT4 (leukemia), JM1 (liver cancer), HOP-62 (lung cancer), HCT-15 (colon cancer), SF-539 (brain cancer), SF295 (brain cancer), ST486 (lymphoma), U251 (brain cancer), and UACC-62 (melanoma).
(§2) Experiments, as described in Example I were conducted with lansoprazole, omeprazole and SCH 28080 at concentrations of 1 μM, 10 μM, and 100 μM. FIGS. 3A-3K show the experimental results when tumor cells from the following cell lines were treated with lansoprazole, omeprazole, and SCH 28080: IGROV1 (FIG. 3A), OVCAR8 (FIG. 3B), ES-2 (FIG. 3C), CAOV3 (FIG. 3D), OVCAR5 (FIG. 3E), SUDHL4 (FIG. 3F), RPMI8226 (FIG. 3G), RPMI6666 (FIG. 3H), NC37 (FIG. 3I), GDM-1 (FIG. 3J), and MC/CAR (FIG. 3K).

GDM-1 (leukemia) = test system: GDM-1 (leukemia)
Procedure: as §1, §2

OVCAR5 (ovarian cancer) = test system: OVCAR5 (ovarian cancer)
Procedure: as §1, §2

[1] = test system: RPMI6666 (Hodgkin's lymphoma)
Procedure: as §1, §2

RPMI8226 (myeloma) = test system: RPMI8226 (myeloma)
Procedure: as §1, §2

NC37 (lymphoma) = test system: NC37 (lymphoma)
Procedure: as §1, §2

MC/CAR (prostate cancer) = test system: MC/CAR (prostate cancer)
Procedure: as §1, §2

Cc1c(OCC(F)(F)F)ccnc1C[S+]([O-])c1nc2ccccc2[nH]1 (centres unmarked) [lansoprazole]
reducing tumor cell growth (SUDHL4 (lymphoma); SUDHL4 (FIG. 3F), 100 μM): effective in reducing tumor cell growth | tumor cell growth reduction (SUDHL4 (lymphoma); SUDHL4 cells, lansoprazole 1-100 μM, 48 hours, MTT): significant tumor cell growth reduction | reducing tumor cell growth (GDM-1 (leukemia); GDM-1 (FIG. 3J), 10 μM): effective in reducing tumor cell growth | tumor cell growth reduction (GDM-1 (leukemia); GDM-1 cells, lansoprazole 1-100 μM, 48 hours, MTT): significant tumor cell growth reduction | reducing tumor cell growth (OVCAR5 (ovarian cancer); OVCAR5 (FIG. 3E), 100 μM): effective in reducing tumor cell growth | tumor cell growth reduction (OVCAR5 (ovarian cancer); OVCAR5 cells, lansoprazole 1-100 μM, 48 hours, MTT): significant tumor cell growth reduction | reducing tumor cell growth ([1]; RPMI6666 (FIG. 3H), 100 μM): effective in reducing tumor cell growth | tumor cell growth reduction ([1]; RPMI6666 cells, lansoprazole 1-100 μM, 48 hours, MTT): significant tumor cell growth reduction | reducing tumor cell growth (RPMI8226 (myeloma); RPMI8226 (FIG. 3G), 100 μM): effective in reducing tumor cell growth | tumor cell growth reduction (RPMI8226 (myeloma); RPMI8226 cells, lansoprazole 1-100 μM, 48 hours, MTT): significant tumor cell growth reduction | reducing tumor cell growth (NC37 (lymphoma); NC37 (FIG. 3I), 100 μM): effective in reducing tumor cell growth | tumor cell growth reduction (NC37 (lymphoma); NC37 cells, lansoprazole 1-100 μM, 48 hours, MTT): significant tumor cell growth reduction | reducing tumor cell growth (MC/CAR (prostate cancer); MC/CAR (FIG. 3K), 100 μM): effective in reducing tumor cell growth | tumor cell growth reduction (MC/CAR (prostate cancer); MC/CAR cells, lansoprazole 1-100 μM, 48 hours, MTT): significant tumor cell growth reduction
